The test system of data set [1] is houseflies (Musca domestica). Kind of data set: Mortality test with houseflies by topical application method. As to conditions: 24 h; for mortality at 0.001 mg: read-out: Pesticidal effect, housefly.
Data set [2] relates to tobacco cutworm (Prodenia litura). Kind of data set: Utility Example-5: spray on soy bean leaves, tobacco cutworm larvae. The data set is classed as in vivo. As to conditions: 48 h, 2 days. How it is done:
An acetone solution of one of the test compounds as mentioned in Table 13 and Tween-20 (the same surfactant as mentioned hereinbefore) was prepared. This acetone solution was diluted with water to prepare a solution containing the test compound in a predetermined concentration. Leaves of soy bean in pots were sprayed with the above diluted solution at the rate of 20 ml/pot and, after one day, ten 3-instar larvae of tobacco cutworm (Prodenia litura) were released on the leaves. The pots were kept in a constant-temperature chamber at 25° C.

In data set [3] the test system is green rice leafhoppers (Nephotettix cincticeps Uhler). Kind of data set: Mortality test with green rice leafhoppers by topical application method. Conditions: for LD50 / mortality at 0.01 µg/female / mortality at 0.1 µg/female / mortality at 1 µg/female / mortality at 10 ng: Nephotettix cincticeps, in Oryza sativa, 24 h; for LD50: read-out: LD50 (median lethal dose), topical, green rice leafhoppers; for mortality at 10 ng: read-out: Pesticidal effect, green rice leafhopper. How it is done: Mortality test with green rice leafhoppers (Nephotettix cincticeps Uhler) by topical application method
Then, the insects were kept at 25° C. with access to rice plant seedlings. The insects were used in groups of 15 individuals each.

The subject of data set [4] is tobacco cutworms (Prodenia litura Fabricius). Kind of data set: Mortality test with tobacco cutworms by topical application method. The format is in vivo. The procedure: Mortality test with tobacco cutworms (Prodenia litura Fabricius) by topical application method
Using a microsyringe, 0.5 μl of the above solution was dripped onto the thoracic adbominal region of each of 3-instar tobacco cutworm (Prodenia litura Fabricius) larvae. […] The test larvae were used in groups of 20 individuals each.

In data set [5] the test system is rice stem borers (Chilo suppressalis Walker). Kind of data set: Mortality test with rice stem borers by topical application method. Conditions: for mortality at 0.001 mg: read-out: Pesticidal effect, rice stem borer. The format is in vivo. The procedure:
Mortality test with rice stem borers (Chilo suppressalis Walker) by topical application method
Using a microsyringe, 0.5 μl of the above solution was applied to the thoracic abdominal region of each final-instar larva of rice stem borer (Chilo suppressalis Walker). […] The test larvae were used in groups of 20 individuals each.

Data set [6] in a line: Fish toxicity test with carp. The format is in vivo, Cyprinus carpio L. Conditions: carp, water, 48 hrs., 21±1° C.; read-out: TLm, Carp (48 hrs.). How it is done: Fish toxicity test with carp (Cyprinus carpio L)
An acetone solution of one of the test compounds as mentioned in Table 10 and Tween-20 (the same surfactant as mentioned hereinbefore) was prepared. To 50 liters of water (30 cm deep) in a glass tank was added the above acetone solution. The mixture was stirred thoroughly to prepare an aqueous solution containing the test compound in a predetermined concentration. This was used as a test water. Five carps (Cyprinus carpio L) with a body weight of about 6 g and a body length of about 6 cm were released into each test water which was maintained at 21±1° C. After 48 hours, the test fish was examined for death. The TLm (median tolerance limit, ppm) was determined. The test water was moderately aerated.

Another data set has as its system carp and water flea. Kind of data set: Fish toxicity ranking according to Japanese regulations. As to conditions: from TLm for carp and water flea. Further details: species or system Cyprinus carpio L; Daphnia pulex. How it is done: The above ranking with symbols A, B and C were determined according to Japanese regulations relative to application of agricultural chemicals, and these symbols are defined as follows: […]
A: TLm (48 hrs.) value >10 ppm for carp and TLm (3 hrs.) value >0.5 ppm for water flea, wherein toxicity to fishes is not observed by usual application.
B: TLm (48 hrs.) value 10-0.5 ppm for carp; or TLm (48 hrs.) value >10 ppm for carp and TLm (3 hrs.) value <0.5 ppm for water flea, wherein appreciable toxicity to fishes is not observed by usual application but may be observed when applied to wide area at one time.
C: TLm (48 hrs.) value <0.5 ppm for carp, wherein toxicity to fishes is so strongly observed by usual application that both the application method and application area are strictly restricted.

Data set [7] can be described thus: Fish toxicity safety factor (TLm divided by maximum concentration in cover water). Further details: species or system carp. Conditions: in vivo, TLm / maximum concentration in cover water at LC50 application (100 l per 10 ares, 5 cm depth). The procedure:
To further confirm the low toxicity to fish and high pesticidal activity of Compounds (1) and (2) according to this invention as evidenced by the fish toxicity tests with carps and the above tests, fish toxicity safety factors were calculated from the fish toxicity and pesticidal test data. These fish toxicity safety factors are indicators of safety to fish inhabiting a paddy field to which Compounds (1) and (2) may be actually applied for pest control purposes.
It is first assumed that such a pesticidal solution would normally be applied at the rate of 100 l per 10 ares of paddy field. It is also assumed that a solution (100 l) corresponding to the LC50 of the compounds would be applied to 10 ares of a paddy field carrying a cover water with a depth of 5 cm above ground surface and that all the solution would then find its way into the cover water. The expected maximum concentration of the compound in the cover water is then calculated. The fish toxicity safety factor of a pesticidal compound is defined as the value obtained by dividing the TLm (ppm) of the particular compound by the maximum concentration of the compound in cover water. The meaning of the value of the fish toxicity safety factor being one (1) is that the maximum concentration of the particular compound in cover water corresponds to the TLm of said compound. It is understood that when the pesticidal compound having a fish toxicity safety factor value of less than one (1) is applied to a paddy field, it has a risk of destroying the fish inhabiting there, and that the higher the safety factor value, the higher is the safety of the compound to fish.
This fish toxicity safety factor will now be explained in further detailed by taking the trans-isomer of Compound (2) of this invention as an example.
On the other hand, the toxicity to fish of this compound is TLm >10 ppm. Therefore, by dividing the TLm (i.e. >10 ppm) by the above cover water maximum concentration (i.e. 0.36 ppm), we obtain a fish toxicity safety factor of >28. Thus, the concentration of the trans-isomerof Compound (2) which kills 50% of pests corresponds to less than 1/28 of the concentration of the same isomer which kills 50% of fish. In other words, this means that the trans-isomer of Compound (2) is extremely safe to fish.

For data set [8], the system named is brown planthoppers (Nilaparvata lugens Stal). Kind of data set: Utility Example-1: LC50 on adult brown planthoppers on dipped rice plants. The format is in vivo. Conditions: Nilaparvata lugens, 24 h, 25° C., read-out: Pesticidal activity LC50. The procedure: A 1% emulsifiable concentrate of each test compound as prepared by the procedure described in Formulation Example 2 was diluted with water to prepare a test solution of predetermined concentration.
Rice plants, 4 weeks after sowing (cultivated in a pot 6 cm in diameter, 7 seedlings) were dipped in the above solution and after allowing them to dry in the air, the pot was covered with a wire-mesh cage. Then, 30 adult brown planthoppers (Nilaparvata lugens Stal) were released into the cage and the pot was kept in a constant-temperature chamber at 25° C.

Setting [9] is: 24 h, read-out: Pesticidal effect, tobacco cutworm.
[10] abbreviates: 0.1 μg/Larva, 3-instar larvae, 24 hours, read-out: % Mortality.
The mark [11] stands for this setting: 1.0 μg/Larva, final-instar larva, 24 hours, read-out: % Mortality.
The mark [12] stands for this setting: 10 μg/Larva, final-instar larva, 24 hours, read-out: % Mortality.

Converted amounts (≈) assume the structure as drawn. Where two headings read alike, the source gives them in different places.

As usually defined, the LD50 is the dose at which mortality reaches 50%.

In [1], `CC1(C)C(C=C(Cl)Cl)C1C(=O)OCc1cccc(Oc2cccc(Cl)c2)c1` (stereo not drawn) came in with a mortality at 0.5 µg/female of 60% and a mortality at 1 µg/female of 93%.

`CC1(C)C(C=C(Cl)Cl)C1C(=O)OCc1cccc(Oc2ccccc2Cl)c1` (stereo not drawn): in [1], the mortality at 0.5 µg/female amounted to 30% and the mortality at 1 µg/female was 60%.

In [1], `Cc1ccc(Oc2cccc(COC(=O)C3C(C=C(Cl)Cl)C3(C)C)c2)cc1` (stereo not drawn) came in with a mortality at 0.5 µg/female of 80% and a mortality at 1 µg/female of 100%.

As for `Cc1cccc(Oc2cccc(COC(=O)C3C(C=C(Cl)Cl)C3(C)C)c2)c1` (stereo not drawn), in [1], the mortality at 0.5 µg/female was 50% and the mortality at 1 µg/female came to 80%.

As for `Cc1ccc(Oc2cccc(C(C#N)OC(=O)C3C(C=C(Cl)Cl)C3(C)C)c2)cc1C` (stereo not drawn), in [1], the mortality at 0.5 µg/female came out at 40% and the mortality at 1 µg/female worked out at 80%.

Regarding `CC1(C)C(C=C(Cl)Cl)C1C(=O)OCc1cccc(Oc2ccc(Cl)c(Cl)c2)c1` (stereo not drawn), in [1], the mortality at 0.5 µg/female was found to be 0% and the mortality at 1 µg/female came to 20%.

In data set [1], `CC1(C)C(C=C(Cl)Cl)C1C(=O)OC(C#N)c1cccc(Oc2cc(Cl)cc(Cl)c2)c1` (stereo not drawn) displayed a mortality at 0.5 µg/female of 0% and a mortality at 1 µg/female of 27%.

`CC1(C)C(C=C(Cl)Cl)C1C(=O)OCc1cccc(Oc2ccc(Br)cc2)c1` (stereo not drawn): in [2], the mortality at 6.5 ppm was determined as 10% and the mortality at 13 ppm turned out to be 100%.

Turning to `C#CC(OC(=O)C1C(C=C(Cl)Cl)C1(C)C)c1cccc(Oc2ccc(Br)cc2)c1` (stereo not drawn), in [2], the mortality at 6.5 ppm came out at 0% and the mortality at 13 ppm stood at 90%.

On to `CCC(C)c1ccccc1OC(=O)NC` (stereo not drawn) [Bassa, o-sec-butylphenyl methylcarbamate], for which, in data set [3], the LD50 was 93.8 mg/kg.

Take `CC1(C)C(C=C(Cl)Cl)C1C(=O)OCc1cccc(Oc2ccc(Cl)cc2)c1` (stereo not drawn) [Compound (1) cis-/trans- = 30:70]: the “LD50 (median lethal dose)” value in data set [3] (green rice leafhoppers, 1440 min) was 0.85 µg/g.

Regarding `CC(C)=CC1C(C(=O)OCc2cccc(Oc3ccccc3)c2)C1(C)C` (stereo not drawn) [Compound (A), Phenothrin], the mortality at 0.0001 mg in data set [4] (24 h) worked out at 35%. Also, in data set [4] (setting [9]), the mortality at 0.0001 mg turned out to be 35%. For the same molecule, in [1], the mortality at 0.5 µg/female was determined as 97%, the mortality at 1 µg/female came to 100% and the mortality at 0.001 mg was found to be 100%. Also, in [3], the mortality at 0.01 µg/female turned out to be 80%, the mortality at 0.1 µg/female amounted to 100%, the mortality at 1 µg/female stood at 100% and the LD50 turned out to be 1.22 mg/kg. For the same molecule, the mortality at 10 ng in [3] was found to be 80%. Moreover, in [5] (24 h), the mortality at 1 µg/larva was 45%, the mortality at 10 µg/larva was 100% and the mortality at 0.001 mg was determined as 45%.

As for `CC1(C)C(C=C(Cl)Cl)C1C(=O)OC(C#N)c1cccc(Oc2ccc(Br)cc2)c1` (stereo not drawn) [Compound (H)], the LC50 at 48 h in data set [6] worked out at 0.063 µg/mL (≈ 0.127 µM). In addition, the mortality at 0.0001 mg in data set [4] (24 h) amounted to 60%. In addition, the mortality at 0.0001 mg in data set [4] (setting [9]) was found to be 60%. In addition, in data set [1], the mortality at 0.5 µg/female amounted to 100%, the mortality at 1 µg/female came out at 100% and the mortality at 0.001 mg came out at 100%. Besides, in [3], the mortality at 0.01 µg/female worked out at 100%, the mortality at 0.1 µg/female is 100%, the mortality at 1 µg/female was 100% and the mortality at 10 ng stood at 100%. Moreover, in data set [5] (24 h), the mortality at 1 µg/larva is 90%, the mortality at 10 µg/larva is 100% and the mortality at 0.001 mg is 90%. In data set [2], the mortality at 6.5 ppm worked out at 40% and the mortality at 13 ppm was found to be 100%. For the same molecule, the Ranking result in the data set with carp and water flea is “C (TLm (48 hrs.) value <0.5 ppm for carp, wherein toxicity to fishes is so strongly observed by usual application that both the application method and application area are strictly restricted.)”.

Consider `CC(C)C(C(=O)OCc1cccc(Oc2ccc(Cl)cc2)c1)c1ccc(Cl)cc1` (stereo not drawn) [Compound (J)], for which the mortality at 0.0001 mg in data set [4] (setting [10]) came to 0%. Further, the mortality at 1 µg/larva in data set [5] (setting [11]) was 15%. Besides, the mortality at 10 µg/larva in [5] (setting [12]) is 90%.

Consider `C#CC(OC(=O)C(c1ccc(Cl)cc1)C(C)C)c1cccc(Oc2ccc(Cl)cc2)c1` (stereo not drawn) [Compound (K)], for which the mortality at 0.0001 mg in data set [4] (setting [10]) amounted to 0%. Besides, in data set [3], the mortality at 0.01 µg/female amounted to 33%, the mortality at 0.1 µg/female was 100% and the mortality at 1 µg/female came to 100%.

Take `CC(C)C(C(=O)OC(C#N)c1cccc(Oc2ccc(Cl)cc2)c1)c1ccc(Cl)cc1` (stereo not drawn) [Compound (L)]: the LC50 at 48 h in [6] worked out at 0.032 µg/mL (≈ 0.0704 µM). Further, the mortality at 0.0001 mg in [4] (setting [10]) is 35%. In addition, in data set [5] (setting [11]), the mortality at 1 µg/larva worked out at 85%. Also, the mortality at 10 µg/larva in data set [5] (setting [12]) is 100%. Moreover, the selectivity ratio in [7] is 0.0071. Besides, the LC50 in [8] is 2260 µg/mL (≈ 4970 µM). Further, the Ranking entry in the data set with carp and water flea was “C (TLm (48 hrs.) value <0.5 ppm for carp, wherein toxicity to fishes is so strongly observed by usual application that both the application method and application area are strictly restricted.)”.

As for `CCOP(=S)(OCC)Oc1cc(C)nc(C(C)C)n1` [Diazinon, diazinon], in [3], the LD50 worked out at 72.2 mg/kg.

As to `COP(=S)(OC)Oc1ccc([N+](=O)[O-])c(C)c1` [Fenitrothion, fenitrothion], the LD50 in data set [3] amounted to 4050 mg/kg.

`CCOC(=O)CC(SP(=S)(OC)OC)C(=O)OCC` (stereo not drawn) [Malathion, malathion]: in [3], the LD50 was 565 mg/kg.

Values taken from US4389412A, “Substituted cyclopropanecarboxylic acid esters and pesticidal compositions containing the same as active ingredient” (priority 1979, dated 1983).
